We go through 3 compounds from patent US10072034B2, “Kinase inhibitors” (Respivert Limited, priority 2016, dated 2018).

Data set [1] deals with SCID mice injected with CD45RBhigh cells. Briefly: Adoptive transfer in mice (T cell driven model of colonic inflammation; assay (v)). The class given is in vivo. As to conditions: for % Inhibition (of induction window between naïve and vehicle animals, colon weight:length) / Colon weight:length: 3 mg/kg BID oral gavage, day 14 to day 49 (Reference Compound A lowered to 0.6 mg/kg on day 27). The protocol: On Study day 0, female Balb/C mice are terminated and spleens obtained for CD45RB^high cell isolation (Using SCID IBD cell Separation protocol). Approximately 4×10^5 cells/mL CD45RB^high cells are then injected intraperitoneally (100 μL/mouse) into female SCID animals. On study day 14, mice are weighed and random/zed into treatment groups based on body weight. On Day 14, compounds are administered BID, via oral gavage, in 5% polyoxyethylene 40 stearate in 20 mM pH 7.8 aqueous phosphate buffer in a dose volume of 5 mL/kg. Treatment continues until study day 49, at which point the animals are necropsied 4 hours after the morning administration. The colon length and weight are recorded and used as a secondary endpoint in the study as a measurement of colon oedema. The colon is then divided into six cross-sections, four of which are used for histopathology scoring (primary endpoint) and two are homogenised for cytokine analysis. Data shown is the % inhibition of the induction window between naïve animals and vehicle animals, where higher inhibition implies closer to the non-diseased, naïve, phenotype.

Data set [2] is described as follows: Microcentrifuge dissolution test 2): direct dosing into intestinal media containing simulated bile-salt micelles (IB-SIF). It counts as physicochemical. As to conditions: for Concentration, IB Timepoint 0 min / Concentration, IB Timepoint 4 min / Concentration, IB Timepoint 10 min / Concentration, IB Timepoint 20 min / Concentration, IB Timepoint 40 min / Concentration, IB Timepoint 90 min / Concentration, IB Timepoint 1,200 min / Additional concentration, UCF Timepoint 90 min: IB-SIF; for Concentration, IB Timepoint 0 min: pH 6.5, 0 min; for Concentration, IB Timepoint 4 min: pH 6.5, 4 min; for Concentration, IB Timepoint 10 min: pH 6.5, 10 min; for Concentration, IB Timepoint 20 min: pH 6.5, 20 min; for Concentration, IB Timepoint 40 min: pH 6.5, 40 min; for Concentration, IB Timepoint 90 min: pH 6.5, 90 min; for Concentration, IB Timepoint 1,200 min: pH 6.5, 1,200 min; for Additional concentration, UCF Timepoint 90 min / Additional concentration, UCF Timepoint 1,200 min: after ultracentrifugation (free drug + drug in micelles); for Additional concentration, UCF Timepoint 1,200 min: IB-SIF, 1,200 min. The protocol:
(§1) In vitro non-sink dissolution performance of the Compound of Example 3 was evaluated alongside Reference Compounds A and B employing microcentrifuge dissolution tests in which samples were either 1) transferred from intestinal buffer (IB) to colonic buffer (CB) or 2) dosed directly into intestinal media containing simulated bile-salt micelles (IB-SIF). Dissolution performance of the compounds at various timepoints was determined by centrifugation and analysis of the supernatant concentrations by off-line reverse-phase HPLC analysis.
Test compounds (0.45 mg±0.05 mg) were weighed into a microcentrifuge tube then 1.800 mL of IB-SIF receptor solution—prepared previously by dissolution of 0.250 g SIF powder (Biorelevant.com) in 50 mL of pH 6.5 PBS warmed to 37° C.—was added. A timer was started and the sample tubes were vortexed at the maximum setting for 1 minute. When the timer read 2, 8, 18, 38, 88 and 1,198 min—corresponding to the 4, 10, 20, 40, 90 and 1,200 min timepoints, respectively—the sample tubes were centrifuged for 1 min at 15,800 RCF. Then, at each timepoint, the supernatant (50 μL) was added to diluent {250 μL of 75/25 THF/Water (v/v)} and the compound concentrations were measured by off-line HPLC analysis (Table 7a). To determine the concentration of free drug+drug in micelles, the HPLC samples for the 90 and 1,200 min timepoints were additionally centrifuged for 8 min at 80,000 rpm at 37° C. in an ultracentrifuge (UCF), then the supernatant (50 μL) was added to diluent {250 PL of 75/25 THF/Water (v/v)} and the compound concentrations were measured by off-line HPLC analysis (Table 7b).

Data set [3] is described as follows: Microcentrifuge dissolution test 1): transfer from intestinal buffer (IB) to colonic buffer (CB). It counts as physicochemical. The settings on record: for Concentration, CB Timepoint 4 min: pH 7.2, 4 min; for Concentration, CB Timepoint 10 min: pH 7.2, 10 min; for Concentration, CB Timepoint 20 min: pH 7.2, 20 min; for Concentration, CB Timepoint 40 min: pH 7.2, 40 min; for Concentration, CB Timepoint 90 min: pH 7.2, 90 min; for Concentration, CB Timepoint 1,200 min: pH 7.2, 1,200 min; for Concentration, IB Timepoint −5 min / Concentration, IB Timepoint −15 min / Concentration, IB Timepoint −25 min: PBS pH 6.5, 37° C.; for Additional concentration, UCF Timepoint 90 min / Additional concentration, UCF Timepoint 1,200 min: after ultracentrifugation (free drug + drug in micelles); for Additional concentration, UCF Timepoint 90 min: CB pH 7.2, 90 min; for Additional concentration, UCF Timepoint 1,200 min: CB pH 7.2, 1,200 min. The protocol:
as §1
Test compounds (0.45 mg±0.05 mg) were weighed into a microcentrifuge tube, then 0.900 mL of IB receptor solution—phosphate buffered saline (PBS) warmed to 37° C. at pH 6.5—was added. A timer was started and the sample tubes were vortexed at the maximum setting for 1 minute. When the timer read 3, 13 and 23 min—corresponding to the 25, 15 and 5 min timepoints, respectively—the sample tubes were centrifuged for 1 min at 15,800 Relative Centrifugal Force (RCF). At each timepoint, a portion of the supernatant (50 μL) was added to diluent {250 μL of 75/25 THF/Water (v/v)} and the compound concentrations were measured by off-line HPLC analysis (Table 6a). After a further 5 min, 0.900 mL of CB receptor solution—pH 10.7 PBS solution—was added, such that the pH was adjusted to 7.2, and the timer was reset to 0 min. When the timer read 2, 8, 18, 38, 88 and 1,198 min—corresponding to the 4, 10, 20, 40, 90 and 1,200 min timepoints, respectively—the sample tubes were centrifuged for 1 min at 15,800 RCF. At each timepoint, a portion of the supernatant (50 μL) was added to diluent {250 μL of 75/25 THF/Water (v/v)} and the compound concentrations were measured by off-line HPLC analysis (Table 6a). The HPLC samples for the 90 and 1,200 min timepoints were additionally centrifuged for 8 min at 80,000 rpm at 37° C. in an ultracentrifuge (UCF), then the supernatant (50 μL) was added to diluent {250 μL of 75/25 THF/Water (v/v)} and the compound concentrations were measured by off-line HPLC analysis (Table 6b) to determine the concentration of free drug+drug in micelles.

Consider `COc1cc(Nc2cc(Oc3ccc(NC(=O)Nc4cc(C(C)(C)C)cc(NS(C)(=O)=O)c4OC)c4ccccc34)ccn2)cc(OCCOCCOCC(=O)O)c1` [Example 3], for which, in data set [1], the “% Inhibition (of induction window between naïve and vehicle animals, colon weight:length)” value (from here on “% Inhibition”) worked out at 49%; the “Colon weight:length” value turned out to be 0.032 ± 0.004. The “Activity compared to the two Reference Compounds (colon weight to length ratio)” value in data set [1] (simple aqueous-based vehicle) was “superior activity”. In data set [2], the “Concentration, IB Timepoint 0 min” value was 0 ng/mL; the “Concentration, IB Timepoint 4 min” value was 255700 ng/mL; the “Concentration, IB Timepoint 10 min” value is 255900 ng/mL; the “Concentration, IB Timepoint 20 min” value was 251700 ng/mL. Moreover, in data set [2], the “Concentration, IB Timepoint 40 min” value is 249200 ng/mL; the “Concentration, IB Timepoint 90 min” value was 253500 ng/mL; the “Concentration, IB Timepoint 1,200 min” value is 239000 ng/mL; the “Additional concentration, UCF Timepoint 90 min” value was 229.4 µg/mL. In data set [2], the “Additional concentration, UCF Timepoint 1,200 min” value is 169.9 µg/mL. Besides, in data set [3], the “Concentration, CB Timepoint 4 min” value was 9300 ng/mL; the “Concentration, CB Timepoint 10 min” value worked out at 9100 ng/mL; the “Concentration, CB Timepoint 20 min” value came to 14300 ng/mL; the “Concentration, CB Timepoint 40 min” value worked out at 48300 ng/mL. In data set [3], the “Concentration, CB Timepoint 90 min” value stood at 60700 ng/mL; the “Concentration, CB Timepoint 1,200 min” value is 85400 ng/mL; the “Concentration, IB Timepoint −5 min” value stood at 8500 ng/mL; the “Concentration, IB Timepoint −15 min” value was 7500 ng/mL. In addition, in data set [3], the “Concentration, IB Timepoint −25 min” value amounted to 5300 ng/mL; the “Additional concentration, UCF Timepoint 90 min” value was 34.1 µg/mL; the “Additional concentration, UCF Timepoint 1,200 min” value is 74.9 µg/mL.
As to `C#Cc1cc(Nc2nccc(Oc3ccc(NC(=O)Nc4cc(C(C)(C)C)nn4-c4ccc(C)cc4)c4ccccc34)n2)cc(C(=O)NCCOCCOCCOC)c1` [Reference Compound B, 3-((4-((4-(3-(3-(tert-butyl)-1-(p-tolyl)-1H-pyrazol-5-yl)ureido)naphthalen-1-yl)oxy)pyrimidin-2-yl)amino)-5-ethynyl-N-(2-(2-(2-methoxyethoxy)ethoxy)ethyl)benzamide], in data set [1], the “% Inhibition” value is listed as 11%; the “Colon weight:length” value came to 0.041 ± 0.005. In addition, in data set [2], the “Concentration, IB Timepoint 0 min” value is 0 ng/mL; the “Concentration, IB Timepoint 4 min” value was 1100 ng/mL; the “Concentration, IB Timepoint 10 min” value is 900 ng/mL; the “Concentration, IB Timepoint 20 min” value is 1300 ng/mL. In data set [2], the “Concentration, IB Timepoint 40 min” value was 1000 ng/mL; the “Concentration, IB Timepoint 90 min” value is 700 ng/mL; the “Concentration, IB Timepoint 1,200 min” value was 3000 ng/mL; the “Additional concentration, UCF Timepoint 90 min” value is 0.7 µg/mL. Besides, in data set [2], the “Additional concentration, UCF Timepoint 1,200 min” value is 2.9 µg/mL. Moreover, in data set [3], the “Concentration, CB Timepoint 4 min” value was determined as 5000 ng/mL; the “Concentration, CB Timepoint 10 min” value worked out at 1900 ng/mL; the “Concentration, CB Timepoint 20 min” value came out at 900 ng/mL; the “Concentration, CB Timepoint 40 min” value was found to be 600 ng/mL. Moreover, in data set [3], the “Concentration, CB Timepoint 90 min” value was found to be 0 ng/mL; the “Concentration, CB Timepoint 1,200 min” value was determined as 4900 ng/mL; the “Concentration, IB Timepoint −5 min” value was found to be 2200 ng/mL; the “Concentration, IB Timepoint −15 min” value amounted to 1000 ng/mL. Moreover, in data set [3], the “Concentration, IB Timepoint −25 min” value is 1900 ng/mL; the “Additional concentration, UCF Timepoint 90 min” value was found to be 0.0 µg/mL; the “Additional concentration, UCF Timepoint 1,200 min” value is 1.6 µg/mL.
Consider `COc1cc(Nc2nccc(Oc3ccc(NC(=O)Nc4cc(C(C)(C)C)cc(NS(C)(=O)=O)c4OC)c4ccccc34)n2)cc(OCCOCCOCCC(=O)O)c1` [Reference Compound A, 3-(2-(2-(3-((4-((4-(3-(5-(tert-butyl)-2-methoxy-3-(methylsulfonamido)phenyl)ureido)naphthalen-1-yl)oxy)-pyrimidin-2-yl)amino)-5-methoxyphenoxy)ethoxy)ethoxy)propanoic acid], for which, in data set [1], the “% Inhibition” value is −14%; the “Colon weight:length” value came out at 0.047 ± 0.007. Also, in data set [2], the “Concentration, IB Timepoint 0 min” value is 0 ng/mL; the “Concentration, IB Timepoint 4 min” value was 39800 ng/mL; the “Concentration, IB Timepoint 10 min” value is 63400 ng/mL; the “Concentration, IB Timepoint 20 min” value was 83500 ng/mL. In data set [2], the “Concentration, IB Timepoint 40 min” value was 96500 ng/mL; the “Concentration, IB Timepoint 90 min” value is 99900 ng/mL; the “Concentration, IB Timepoint 1,200 min” value is 101000 ng/mL; the “Additional concentration, UCF Timepoint 90 min” value was 87.0 µg/mL. In data set [2], the “Additional concentration, UCF Timepoint 1,200 min” value is 88.8 µg/mL. Besides, in data set [3], the “Concentration, CB Timepoint 4 min” value came to 11400 ng/mL; the “Concentration, CB Timepoint 10 min” value was 11500 ng/mL; the “Concentration, CB Timepoint 20 min” value stood at 10700 ng/mL; the “Concentration, CB Timepoint 40 min” value was 10700 ng/mL. In data set [3], the “Concentration, CB Timepoint 90 min” value was determined as 8400 ng/mL; the “Concentration, CB Timepoint 1,200 min” value came to 7900 ng/mL; the “Concentration, IB Timepoint −5 min” value stood at 5300 ng/mL; the “Concentration, IB Timepoint −15 min” value turned out to be 4600 ng/mL. Moreover, in data set [3], the “Concentration, IB Timepoint −25 min” value amounted to 2900 ng/mL; the “Additional concentration, UCF Timepoint 90 min” value worked out at 5.1 µg/mL; the “Additional concentration, UCF Timepoint 1,200 min” value is 3.9 µg/mL.
